In ChEMBL document CHEMBL1121806, “Inhibition of the renin-angiotensin system. A new approach to the therapy of hypertension” (J Med Chem, 1981):
Starred links: 1 amine or outer side, 2 acyl side, 3 side chain; linkers in the order of their positions; H or OH if unused. Non-standard residues stand in square brackets, D forms with d. Residues, ends and D or L forms follow the SMILES beside them. ξ: configuration not given here. *: point of attachment. Sta(3ξ) = CC(C)C[C@H](N[*:1])C(O)CC(=O)[*:2]; Isovaleryl = CC(C)CC(=O)*

T1: Renin (Homo sapiens, UniProt P00797)
T1 sequence (P00797 whole entry): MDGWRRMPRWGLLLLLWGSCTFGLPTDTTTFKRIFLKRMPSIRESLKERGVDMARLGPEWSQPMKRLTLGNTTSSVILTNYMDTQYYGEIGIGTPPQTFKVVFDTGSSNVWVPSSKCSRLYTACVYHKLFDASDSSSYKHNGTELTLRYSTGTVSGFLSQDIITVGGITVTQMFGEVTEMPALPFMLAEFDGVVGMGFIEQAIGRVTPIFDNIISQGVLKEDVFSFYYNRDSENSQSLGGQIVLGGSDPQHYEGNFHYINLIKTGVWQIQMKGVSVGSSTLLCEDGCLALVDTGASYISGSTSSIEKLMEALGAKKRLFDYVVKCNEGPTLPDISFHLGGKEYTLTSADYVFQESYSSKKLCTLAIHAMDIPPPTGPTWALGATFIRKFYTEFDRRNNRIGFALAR

B1: Renin (Homo sapiens), P00797 (protein)
chain: T1 sequence (P00797 whole entry)

Assays:
[1] = molecular target: T1, Renin; test: Antihypertensive activity against human renin
[2] = substrate: CC[C@H](C)[C@H](NC(=O)[C@H](Cc1ccc(O)cc1)NC(=O)[C@@H](NC(=O)[C@H](CCCN=C(N)N)NC(=O)[C@@H](N)CC(=O)O)C(C)C)C(=O)N[C@@H](Cc1c[nH]cn1)C(=O)N1CCC[C@H]1C(=O)N[C@@H](Cc1ccccc1)C(=O)N[C@@H](Cc1c[nH]cn1)C(=O)N[C@@H](CC(C)C)C(=O)O; test: The compound was tested for its antihypertensive activity against human renin; assay type: functional

Molecule | Ki [1] | Km [2]
CC(C)CC(=O)N[C@H](C(=O)N[C@H](C(=O)N[C@@H](CC(C)C)C(O)CC(=O)N[C@@H](C)C(=O)N[C@@H](CC(C)C)C(O)CC(=O)N[C@@H](CCCN=C(N)N)C(=O)O)C(C)C)C(C)C (some centres undefined) (Isovaleryl-VV[Sta(3ξ)]A[Sta(3ξ)]R-OH) | 100 nM | –
C[C@H](CC(=O)O)C(=O)N1CCC[C@H]1C(=O)O | 2500 nM | –
C[C@@H](NC(=O)[C@H](Cc1ccccc1)NP(=O)(O)Oc1ccccc1)C(=O)O | 2200 nM | –
CC(C)C[C@H](NC(=O)[C@H](Cc1cnc[nH]1)NC(=O)[C@H](Cc1ccccc1)NC(=O)[C@H]1CCCN1C(=O)[C@H](Cc1cnc[nH]1)NC(=O)[C@H]1CCCN1)C(=O)N[C@@H](Cc1ccccc1)C(=O)N[C@H](C(=O)N[C@@H](Cc1ccc(O)cc1)C(=O)O)C(C)C | 4000 nM | –
C[C@H](NC(CCc1ccccc1)C(=O)O)C(=O)N1CCC[C@H]1C(=O)O (some centres undefined) | 1.2 nM | –
C[C@H](CS)C(=O)N1CCC[C@H]1C(=O)O [CAPTOPRIL] | 1.7 nM | –
C[C@H](CCC(=O)O)C(=O)N1CCC[C@H]1C(=O)O | 800 nM | –
C[C@H](CC(=O)NO)C(=O)N1CCC[C@H]1C(=O)O | 600 nM | –
CC(C)[C@H](NC(=O)[C@H](Cc1ccccc1)NC(=O)[C@H](Cc1ccccc1)NC(=O)[C@H](Cc1c[nH]cn1)NC(=O)[C@H](Cc1ccccc1)NC(=O)[C@H]1CCCN1C(=O)[C@H](Cc1c[nH]cn1)NC(=O)[C@H]1CCCN1)C(=O)N[C@@H](Cc1ccc(O)cc1)C(=O)O | 1000 nM | –
CC(C)C[C@H](NC(=O)[C@H](Cc1cnc[nH]1)NC(=O)[C@H](Cc1ccccc1)NC(=O)[C@H]1CCCN1C(=O)[C@H](Cc1cnc[nH]1)NC(=O)[C@H]1CCCN1)C(=O)N[C@@H](CC(C)C)C(=O)N[C@H](C(=O)N[C@@H](Cc1ccc(O)cc1)C(=O)O)C(C)C | 42000 nM | –
H-EWPRPQIPP-OH | 800 nM | –
C[C@H](NP(=O)(O)Oc1ccccc1)C(=O)N1CCC[C@H]1C(=O)O | 1 nM | –
COC(=O)[C@H](CCCN=C(N)N)NC(=O)CC(O)[C@H](CC(C)C)NC(=O)[C@H](C)NC(=O)CC(O)[C@H](CC(C)C)NC(=O)[C@@H](NC(=O)[C@@H](NC(=O)CC(C)C)C(C)C)C(C)C (some centres undefined) (Isovaleryl-VV[Sta(3ξ)]A[Sta(3ξ)]R-OMe) | 300 nM | –
B1 | – | 50 µM
